In patent US11312727B1, “Macrocyclic flu endonuclease inhibitors” (Janssen BioPharma, Inc., priority 2018, dated 2022):
Like-named read-outs stand apart in the source and are kept apart here.

How the values were obtained:
in vitro = conditions: human, CC50, uninfected A549 cells, CellTiter-Glo
[1] = test system: Influenza strain A549 A/WSN/33 (H1N1); assay: microbe, parasite or virus in culture; type: cell-based; conditions: A549 cells, influenza A/WSN/33 (H1N1), 20 hours incubation, read-out: A549_A(H1N1) EC50

Row | Compound | CC50 (in vitro) [nM] | EC50 ([1]; Influenza A virus, A549, 20 h) [nM] | EC50 [1] [nM]
1 | O=C1c2c(O)c(=O)ccn2N2CN1C/C=C\COc1ccccc1[C@@H]2c1cccc(F)c1 (single isomer, unassigned) [Compound 63B, (18*S,Z)-18-(3-fluorophenyl)-12-hydroxy-6,9-dihydro-18H-10,17-methanobenzo[b]pyrido[1,2-f][1]oxa[5,6,9]triazacyclotridecine-11,13-dione] | > 2000 | 13 | –
2 | O=C1c2c(O)c(=O)ccn2N2CN1CC/C=C\COc1ccc(F)c3c1[C@@H]2c1cccc(F)c1SC3 (single isomer, unassigned) [Compound 151A, (1*R,13*Z)-20,25-difluoro-7-hydroxy-16-oxa-23-thia-2,3,10-triazahexacyclo[15.12.1.12,10.03,8.021,30.024,29]hentriaconta-4,7,13,17,19,21(30),24(29),25,27-nonaene-6,9-dione] | > 100 | > 50 | –
3 | C/C1=C/CN2CN([C@@H](c3ccccc3)c3ccccc3OC1)n1ccc(=O)c(O)c1C2=O (single isomer, unassigned) [Compound 44B, (18*S,*Z)-12-hydroxy-7-methyl-18-phenyl-6,9-dihydro-18H-10,17-methanobenzo[b]pyrido[1,2-f][1]oxa[5,6,9]triazacyclotridecine-11,13-dione] | > 20000 | > 10000 | –
4 | O=C1c2c(O)c(=O)ccn2N2CN1C/C=C\COc1c(ccc(Cl)c1Cl)[C@@H]2c1ccccc1 (single isomer, unassigned) [Compound 103B, (18*S,Z)-3,4-dichloro-12-hydroxy-18-phenyl-6,9-dihydro-18H-10,17-methanobenzo[b]pyrido[1,2-f][1]oxa[5,6,9]triazacyclotridecine-11,13-dione] | > 200 | 3.1 | –
5 | O=C1c2c(O)c(=O)ccn2N2CN1CCCCCOc1cccc3c1[C@H]2c1ccccc1SC3 (single isomer, unassigned) [Compound 48A] | > 2000 | – | > 1000
6 | O=C1c2c(O)c(=O)ccn2N2CN1C/C=C/COc1c(F)cccc1[C@@H]2c1ccccc1C1CC1 [Compound 123B, (18S,E)-18-(2-cyclopropylphenyl)-4-fluoro-12-hydroxy-6,9-dihydro-18H-10,17-methanobenzo[b]pyrido[1,2-f][1]oxa[5,6,9]triazacyclotridecine-11,13-dione] | > 200 | > 100 | –
7 | O=C1c2c(O)c(=O)ccn2N2CN1C[C@H]1C[C@@H]1COc1cc(F)c(F)c3c1[C@H]2c1ccccc1SC3 (single isomer, unassigned) [Compound 127BA, (1a*S,11b*R,20a*S)-22,23-difluoro-17-hydroxy-1a,2,6,11b,20,20a-hexahydro-1H-5,4-(epiprop[1]en[1]yl[3]ylidene)-12,19-methanobenzo[6,7]thiepino[4,5-c]cyclopropa[k]pyrido[1,2-f][1]oxa[5,6,9]triazacyclotridecine-16,18-dione] | > 200 | 1.4 | –
8 | CC[C@H]1/C=C/COc2cc(Cl)ccc2[C@H](c2ccccc2)N2CN1C(=O)c1c(O)c(=O)ccn12 (single isomer, unassigned) [Compound 97BB] | > 1000 | > 500 | –
9 | O=C1c2c(O)c(=O)ccn2N2CN1CCCCOc1ccc(F)cc1[C@@H]2c1cccc(F)c1 (single isomer, unassigned) [Compound 32B, (18*S)-2-fluoro-18-(3-fluorophenyl)-12-hydroxy-6,7,8,9-tetrahydro-18H-10,17-methanobenzo[b]pyrido[1,2-f][1]oxa[5,6,9]triazacyclotridecine-11,13-dione] | > 2000 | 25 | –
10 | O=C1c2c(O)c(=O)ccn2N2CN1C/C=C\COc1cc(F)ccc1[C@H]2c1ccccn1 (single isomer, unassigned) [Compound 71B, (18*S,*Z)-3-fluoro-12-hydroxy-18-(pyridin-2-yl)-6,9-dihydro-18H-10,17-methanobenzo[b]pyrido[1,2-f][1]oxa[5,6,9]triazacyclotridecine-11,13-dione] | > 20000 | 7690 | –
11 | CC(C)[C@@H]1/C=C/COc2ccccc2[C@@H](c2ccccc2)N2CN1C(=O)c1c(O)c(=O)ccn12 (single isomer, unassigned) [Compound 132A, (9*R,18*R,*E)-12-hydroxy-9-isopropyl-18-phenyl-9,10-dihydro-6H,18H-10,17-methanobenzo[b]pyrido[1,2-f][1]oxa[5,6]diazacyclotridecine-11,13-dione] | > 200 | > 100 | –
12 | O=C1c2c(O)c(=O)ccn2N2CN1C/C=C\COc1cc(C(F)F)ccc1[C@@H]2c1ccccc1 (single isomer, unassigned) [Compound 94A, (18*S,Z)-3-(difluoromethyl)-12-hydroxy-18-phenyl-6,9-dihydro-18H-10,17-methanobenzo[b]pyrido[1,2-f][1]oxa[5,6,9]triazacyclotridecine-11,13-dione] | > 1000 | 25.7 | –
13 | CC[C@H]1/C=C/COc2cc(F)ccc2[C@@H](c2ccccc2)N2CN1C(=O)c1c(O)c(=O)ccn12 (single isomer, unassigned) [Compound 89AA, (9*S,18*R,E)-9-ethyl-3-fluoro-12-hydroxy-18-phenyl-6,9-dihydro-18H-10,17-methanobenzo[b]pyrido[1,2-f][1]oxa[5,6,9]triazacyclotridecine-11,13-dione] | 39300 | 10800 | –
14 | O=C1c2c(O)c(=O)ccn2N2CN1CCC/C=C/COc1ccccc1[C@@H]2c1ccccc1 (single isomer, unassigned) [Compound 67B, (2*S,*Z)-15-hydroxy-2-phenyl-12,13,14,16-tetrahydro-11H-4-oxa-1(1,3)-pyrido[2,1-f][1,2,4]triazina-3(1,2)-benzenacyclodecaphan-6-ene-14,16-dione] | > 2000 | > 1000 | –
15 | O=C1c2c(O)c(=O)ccn2N2CN1CCCCCCc1ccccc1C2c1ccccn1 (centres unmarked) [Compound 11, 15-hydroxy-2-(pyridin-2-yl)-12,13,14,16-tetrahydro-11H-1(1,3)-pyrido[2,1-f][1,2,4]triazina-3(1,2)-benzenacyclononaphane-14,16-dione] | > 2000 | 363 | –
16 | O=C1c2c(O)c(=O)ccn2N2CN1CCCCOc1ccccc1C2c1ccccc1 (centres unmarked) [Compound 8, 12-hydroxy-18-phenyl-6,7,8,9-tetrahydro-18H-10,17-methanobenzo[b]pyrido[1,2-f][1]oxa[5,6,9]triazacyclotridecine-11,13-dione] | > 2000 | 59 | –
17 | O=C1c2c(O)c(=O)ccn2N2CN1CCCCCc1ccccc1C2c1ccccc1 (centres unmarked) [Compound 4, 4-hydroxy-16-phenyl-7,8,9,10,11,16-hexahydro-6,17-methanobenzo[k]pyrido[1,2-b][1,2,5]triazacyclotridecine-3,5-dione] | > 4000 | 48 | –
18 | CC[C@H]1C/C=C/COc2c(F)cccc2[C@H](c2ccccc2)N2CN1C(=O)c1c(O)c(=O)ccn12 (single isomer, unassigned) [Compound 105BA, (2*S,9*S,*E)-9-ethyl-33-fluoro-15-hydroxy-2-phenyl-12,13,14,16-tetrahydro-11H-4-oxa-1(1,3)-pyrido[2,1-f][1,2,4]triazina-3(1,2)-benzenacyclononaphan-6-ene-14,16-dione] | > 200 | > 100 | –
19 | O=C1c2c(O)c(=O)ccn2N2CN1C/C=C\COc1cc(F)c(F)c3c1[C@H]2c1ccccc1SC3 (single isomer, unassigned) [Compound 140D, (21a*S,*Z)-24,25-difluoro-16-hydroxy-6,10,13,21a-tetrahydro-7,8-(epiprop[1]en[1]yl[3]ylidene)-14,21-methanobenzo[6,7]thiepino[4,5-c]pyrido[1,2-f][1]oxa[5,6,9]triazacyclotridecine-15,17-dione] | > 50 | 1.2 | –
20 | CSc1ccccc1[C@H]1c2cccc(F)c2OC/C=C\CN2CN1n1ccc(=O)c(O)c1C2=O (single isomer, unassigned) [Compound 119A, (18*R,*Z)-4-fluoro-12-hydroxy-18-(2-(methylthio)phenyl)-6,9-dihydro-18H-10,17-methanobenzo[b]pyrido[1,2-f][1]oxa[5,6,9]triazacyclotridecine-11,13-dione] | > 200 | > 100 | –
21 | O=C1c2c(O)c(=O)ccn2N2CN1C/C=C\COc1ccccc1[C@H]2c1cccnc1 (single isomer, unassigned) [Compound 26A, (18*R,*Z)-12-hydroxy-18-(pyridin-3-yl)-6,9-dihydro-18H-10,17-methanobenzo[b]pyrido[1,2-f][1]oxa[5,6,9]triazacyclotridecine-11,13-dione] | > 2000 | 394 | –
22 | CC(C)[C@H]1/C=C/COc2ccccc2[C@H](c2ccccc2)N2CN1C(=O)c1c(O)c(=O)ccn12 (single isomer, unassigned) [Compound 132B, (9*S,18*S,*E)-12-hydroxy-9-isopropyl-18-phenyl-6,9-dihydro-18H-10,17-methanobenzo[b]pyrido[1,2-f][1]oxa[5,6,9]triazacyclotridecine-11,13-dione] | > 200 | 9.3 | –
23 | O=C1c2c(O)c(=O)ccn2N2CN1CCCCCOc1cccc3c1[C@@H]2c1ccccc1SC3 (single isomer, unassigned) [Compound 48B] | > 2000 | – | 27
24 | O=C1c2c(O)c(=O)ccn2N2CN1C/C=C\COc1c(Cl)cccc1[C@@H]2c1ccccc1 (single isomer, unassigned) [Compound 75B, (18*S,Z)-4-chloro-12-hydroxy-18-phenyl-6,9-dihydro-18H-10,17-methanobenzo[b]pyrido[1,2-f][1]oxa[5,6,9]triazacyclotridecine-11,13-dione] | > 200 | 3 | –
25 | O=C1c2c(O)c(=O)ccn2N2CN1CCCCCc1ccccc1[C@@H]2c1ccccn1 (single isomer, unassigned) [Compound 40A, (17*R)-4-hydroxy-16-(pyridin-2-yl)-7,8,9,10,11,16-hexahydro-6,17-methanobenzo[k]pyrido[1,2-b][1,2,5]triazacyclotridecine-3,5-dione] | > 2000 | 30 | –
